What was measured:
[1] = target: Receptor tyrosine-protein kinase erbB-4 (Homo sapiens) (UniProt Q15303); conditions: Compound concentration 1000.0 nM
[2] = target: Cyclin-dependent kinase 3 (Homo sapiens) (UniProt Q00526); conditions: Compound concentration 1000.0 nM
[3] = target: T1, 5-hydroxytryptamine receptor 3A (Homo sapiens) (UniProt P46098); test: 5-HT3 (h) Eurofins-Cerep binding assay; parameters: ligand concentration 0.5 nM; conditions: filed as antagonist, Compound concentration 10.0 uM
T1 sequence (whole entry): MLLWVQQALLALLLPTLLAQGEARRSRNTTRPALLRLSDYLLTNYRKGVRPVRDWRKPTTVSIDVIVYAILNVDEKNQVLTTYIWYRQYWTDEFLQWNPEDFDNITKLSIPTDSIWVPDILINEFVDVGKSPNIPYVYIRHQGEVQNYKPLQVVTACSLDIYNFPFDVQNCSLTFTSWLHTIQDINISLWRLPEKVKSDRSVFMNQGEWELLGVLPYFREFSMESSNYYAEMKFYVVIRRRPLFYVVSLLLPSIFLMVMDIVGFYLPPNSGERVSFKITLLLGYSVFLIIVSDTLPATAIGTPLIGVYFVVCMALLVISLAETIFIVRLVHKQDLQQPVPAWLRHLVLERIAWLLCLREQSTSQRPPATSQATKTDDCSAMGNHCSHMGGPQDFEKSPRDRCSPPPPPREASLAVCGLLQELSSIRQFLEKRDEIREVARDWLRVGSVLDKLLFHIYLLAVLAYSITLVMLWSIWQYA

[4] = target: Substance-P receptor (Homo sapiens) (UniProt P25103); test: NK1 (h) Eurofins-Cerep binding assay; parameters: ligand concentration 0.05 nM; conditions: filed as agonist, Compound concentration 10.0 uM
Chain of Substance-P receptor (Homo sapiens) (P25103 whole entry): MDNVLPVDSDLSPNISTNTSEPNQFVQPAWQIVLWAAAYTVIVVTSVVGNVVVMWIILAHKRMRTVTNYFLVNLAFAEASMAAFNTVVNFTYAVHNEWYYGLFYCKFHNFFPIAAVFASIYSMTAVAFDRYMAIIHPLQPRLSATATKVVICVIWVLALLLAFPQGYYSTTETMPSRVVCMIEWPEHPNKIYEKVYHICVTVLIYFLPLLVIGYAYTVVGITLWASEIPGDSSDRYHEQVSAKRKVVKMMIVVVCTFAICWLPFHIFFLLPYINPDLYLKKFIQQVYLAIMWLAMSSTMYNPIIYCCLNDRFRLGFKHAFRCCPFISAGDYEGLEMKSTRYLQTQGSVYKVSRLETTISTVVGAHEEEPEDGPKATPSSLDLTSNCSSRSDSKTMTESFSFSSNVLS

[5] = target: Cannabinoid receptor 2 (Homo sapiens) (UniProt P34972); test: CB2 (h) Eurofins-Cerep binding assay; parameters: ligand concentration 0.8 nM; conditions: filed as agonist, Compound concentration 10.0 uM
Chain of Cannabinoid receptor 2 (Homo sapiens) (P34972 whole entry): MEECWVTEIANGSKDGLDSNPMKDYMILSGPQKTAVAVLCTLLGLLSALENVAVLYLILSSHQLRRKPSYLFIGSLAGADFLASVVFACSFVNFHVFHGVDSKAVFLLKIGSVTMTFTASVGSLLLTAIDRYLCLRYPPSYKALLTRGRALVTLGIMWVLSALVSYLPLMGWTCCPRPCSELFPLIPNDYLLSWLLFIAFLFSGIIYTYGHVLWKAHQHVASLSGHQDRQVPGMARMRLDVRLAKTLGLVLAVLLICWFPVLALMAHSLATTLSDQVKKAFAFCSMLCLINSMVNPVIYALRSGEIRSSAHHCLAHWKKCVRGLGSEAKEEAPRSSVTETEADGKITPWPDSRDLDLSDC

[6] = target: Serine/threonine-protein kinase ULK1 (Homo sapiens) (UniProt O75385); conditions: Compound concentration 1000.0 nM
[7] = target: Dual specificity protein kinase CLK4 (Homo sapiens) (UniProt Q9HAZ1); conditions: Compound concentration 1000.0 nM
Chain of Dual specificity protein kinase CLK4 (Homo sapiens) (Q9HAZ1 whole entry, looked up): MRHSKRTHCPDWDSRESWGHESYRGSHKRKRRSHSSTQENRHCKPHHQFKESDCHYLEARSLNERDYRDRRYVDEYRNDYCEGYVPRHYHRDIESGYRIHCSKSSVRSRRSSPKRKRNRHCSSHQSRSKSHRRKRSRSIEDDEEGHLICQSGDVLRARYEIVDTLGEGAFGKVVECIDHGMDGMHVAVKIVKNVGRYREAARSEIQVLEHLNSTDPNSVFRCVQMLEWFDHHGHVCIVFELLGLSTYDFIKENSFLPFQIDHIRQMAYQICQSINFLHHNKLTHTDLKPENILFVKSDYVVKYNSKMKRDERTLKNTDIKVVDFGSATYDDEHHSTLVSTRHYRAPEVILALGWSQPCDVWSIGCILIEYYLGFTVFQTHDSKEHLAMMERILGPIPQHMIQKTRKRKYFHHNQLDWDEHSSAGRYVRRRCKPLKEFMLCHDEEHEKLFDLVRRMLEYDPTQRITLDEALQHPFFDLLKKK

[8] = target: Sodium- and chloride-dependent GABA transporter 1 (Rattus norvegicus) (UniProt P23978); test: GABA transporter Eurofins-Cerep binding assay; parameters: ligand concentration 10 nM; conditions: filed as antagonist, Compound concentration 10.0 uM
[9] = target: Serine/threonine-protein kinase WNK4 (Homo sapiens) (UniProt Q96J92); conditions: Compound concentration 1000.0 nM
[10] = target: Endothelin-1 receptor (Homo sapiens) (UniProt P25101); test: ETA (h) Eurofins-Cerep binding assay; parameters: ligand concentration 0.03 nM; conditions: filed as agonist, Compound concentration 10.0 uM
Chain of Endothelin-1 receptor (Homo sapiens) (P25101 whole entry): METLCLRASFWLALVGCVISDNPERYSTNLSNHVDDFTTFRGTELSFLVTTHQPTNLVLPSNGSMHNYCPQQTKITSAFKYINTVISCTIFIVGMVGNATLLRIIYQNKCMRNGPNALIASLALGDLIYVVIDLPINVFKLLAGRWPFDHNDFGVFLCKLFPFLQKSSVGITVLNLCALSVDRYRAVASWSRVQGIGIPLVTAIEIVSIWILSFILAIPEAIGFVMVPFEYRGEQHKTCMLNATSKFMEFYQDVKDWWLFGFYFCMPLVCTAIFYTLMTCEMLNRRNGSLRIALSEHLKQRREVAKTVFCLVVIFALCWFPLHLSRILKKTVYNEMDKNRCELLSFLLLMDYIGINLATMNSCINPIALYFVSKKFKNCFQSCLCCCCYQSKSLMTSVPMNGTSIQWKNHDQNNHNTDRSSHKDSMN

[11] = target: Serine/threonine-protein kinase ICK (Homo sapiens) (UniProt Q9UPZ9); conditions: Compound concentration 1000.0 nM
Chain of Serine/threonine-protein kinase ICK (Homo sapiens) (Q9UPZ9 whole entry): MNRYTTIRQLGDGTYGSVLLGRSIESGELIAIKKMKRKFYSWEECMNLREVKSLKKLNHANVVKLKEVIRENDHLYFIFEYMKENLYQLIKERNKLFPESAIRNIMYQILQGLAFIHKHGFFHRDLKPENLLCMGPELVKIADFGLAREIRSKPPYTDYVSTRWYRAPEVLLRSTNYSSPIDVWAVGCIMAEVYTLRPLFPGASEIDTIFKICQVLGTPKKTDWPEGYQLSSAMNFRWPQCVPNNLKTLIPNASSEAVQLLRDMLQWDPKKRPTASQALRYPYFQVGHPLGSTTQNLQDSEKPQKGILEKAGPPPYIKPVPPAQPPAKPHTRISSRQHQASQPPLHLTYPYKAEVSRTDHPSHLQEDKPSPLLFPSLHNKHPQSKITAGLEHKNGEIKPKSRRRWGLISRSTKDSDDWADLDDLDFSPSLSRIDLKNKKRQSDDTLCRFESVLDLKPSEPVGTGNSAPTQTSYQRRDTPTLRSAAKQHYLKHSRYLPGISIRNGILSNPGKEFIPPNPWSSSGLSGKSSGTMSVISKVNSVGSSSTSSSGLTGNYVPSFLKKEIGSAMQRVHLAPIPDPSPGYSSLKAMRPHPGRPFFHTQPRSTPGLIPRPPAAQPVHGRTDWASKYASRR

[12] = target: T2, Muscarinic acetylcholine receptor M5 (Homo sapiens) (UniProt P08912); conditions: Compound concentration 10.0 uM
T2 sequence (whole entry): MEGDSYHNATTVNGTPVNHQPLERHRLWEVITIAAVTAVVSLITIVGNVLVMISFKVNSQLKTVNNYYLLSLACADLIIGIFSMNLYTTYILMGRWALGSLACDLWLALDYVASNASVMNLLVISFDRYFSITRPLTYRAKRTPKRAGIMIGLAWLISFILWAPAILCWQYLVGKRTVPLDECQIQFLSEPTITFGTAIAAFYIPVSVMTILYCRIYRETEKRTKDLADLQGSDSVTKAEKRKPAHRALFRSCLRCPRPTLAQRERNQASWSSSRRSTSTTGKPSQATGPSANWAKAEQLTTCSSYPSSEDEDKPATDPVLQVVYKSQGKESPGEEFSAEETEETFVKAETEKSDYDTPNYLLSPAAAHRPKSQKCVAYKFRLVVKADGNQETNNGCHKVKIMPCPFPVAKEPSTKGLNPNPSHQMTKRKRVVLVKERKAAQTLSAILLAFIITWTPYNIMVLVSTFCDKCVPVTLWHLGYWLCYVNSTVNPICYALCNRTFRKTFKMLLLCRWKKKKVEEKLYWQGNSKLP

[13] = target: Serine/threonine-protein kinase MARK2 (Homo sapiens) (UniProt Q7KZI7); conditions: Compound concentration 1000.0 nM
[14] = target: Serine/threonine-protein kinase TNNI3K (Homo sapiens) (UniProt Q59H18); conditions: Compound concentration 1000.0 nM
[15] = target: Serine/threonine-protein kinase MARK1 (Homo sapiens) (UniProt Q9P0L2); conditions: Compound concentration 1000.0 nM
[16] = tested on: Receptor-type tyrosine-protein kinase FLT3 (Homo sapiens), P36888 [K663Q]; conditions: Compound concentration 1000.0 nM
[17] = target: Protein kinase C delta type (Homo sapiens) (UniProt Q05655); conditions: Compound concentration 1000.0 nM
Chain of Protein kinase C delta type (Homo sapiens) (Q05655 whole entry, looked up): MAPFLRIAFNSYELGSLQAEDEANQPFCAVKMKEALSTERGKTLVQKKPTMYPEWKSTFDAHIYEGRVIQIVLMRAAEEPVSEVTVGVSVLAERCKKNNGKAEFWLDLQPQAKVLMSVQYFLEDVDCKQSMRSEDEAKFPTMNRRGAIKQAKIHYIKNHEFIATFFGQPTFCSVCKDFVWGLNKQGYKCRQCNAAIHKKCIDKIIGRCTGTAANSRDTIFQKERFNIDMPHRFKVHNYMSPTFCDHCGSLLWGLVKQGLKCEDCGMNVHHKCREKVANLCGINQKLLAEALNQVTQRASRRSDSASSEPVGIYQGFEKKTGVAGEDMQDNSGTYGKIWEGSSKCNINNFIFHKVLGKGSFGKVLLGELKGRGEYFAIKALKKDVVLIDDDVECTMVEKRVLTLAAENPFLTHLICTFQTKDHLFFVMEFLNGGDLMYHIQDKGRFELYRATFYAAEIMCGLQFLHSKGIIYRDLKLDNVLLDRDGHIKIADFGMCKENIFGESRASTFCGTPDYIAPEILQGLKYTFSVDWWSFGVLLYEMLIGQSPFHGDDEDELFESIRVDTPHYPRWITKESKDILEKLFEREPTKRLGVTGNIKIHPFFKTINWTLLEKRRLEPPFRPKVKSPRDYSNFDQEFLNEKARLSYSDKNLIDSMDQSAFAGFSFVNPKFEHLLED

[18] = target: Serine/threonine-protein kinase D2 (Homo sapiens) (UniProt Q9BZL6); conditions: Compound concentration 1000.0 nM
Chain of Serine/threonine-protein kinase D2 (Homo sapiens) (Q9BZL6 whole entry): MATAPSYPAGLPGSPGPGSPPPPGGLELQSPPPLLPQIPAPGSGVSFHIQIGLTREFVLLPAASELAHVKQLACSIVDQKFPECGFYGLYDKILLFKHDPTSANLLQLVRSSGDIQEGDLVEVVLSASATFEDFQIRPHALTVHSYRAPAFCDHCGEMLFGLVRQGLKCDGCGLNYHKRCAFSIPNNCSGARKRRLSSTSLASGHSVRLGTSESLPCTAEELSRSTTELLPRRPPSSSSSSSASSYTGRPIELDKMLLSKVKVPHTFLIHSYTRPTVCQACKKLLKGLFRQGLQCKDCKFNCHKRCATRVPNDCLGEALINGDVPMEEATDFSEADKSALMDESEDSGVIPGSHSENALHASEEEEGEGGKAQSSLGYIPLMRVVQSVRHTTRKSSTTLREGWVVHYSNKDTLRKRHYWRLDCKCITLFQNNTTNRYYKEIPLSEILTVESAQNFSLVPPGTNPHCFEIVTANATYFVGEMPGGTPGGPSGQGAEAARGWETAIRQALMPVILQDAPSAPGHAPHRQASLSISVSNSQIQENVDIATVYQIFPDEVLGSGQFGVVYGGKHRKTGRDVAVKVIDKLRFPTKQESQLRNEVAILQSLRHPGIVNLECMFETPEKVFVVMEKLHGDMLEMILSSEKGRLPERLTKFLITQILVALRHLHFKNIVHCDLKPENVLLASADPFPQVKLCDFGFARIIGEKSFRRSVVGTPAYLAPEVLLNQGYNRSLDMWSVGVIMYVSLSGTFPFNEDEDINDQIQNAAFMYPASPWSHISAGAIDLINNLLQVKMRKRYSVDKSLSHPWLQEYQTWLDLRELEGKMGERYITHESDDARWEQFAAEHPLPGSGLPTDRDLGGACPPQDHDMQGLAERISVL

[19] = target: Prostaglandin G/H synthase 2 (Homo sapiens) (UniProt P35354); test: COX2(h) Eurofins-Cerep enzyme and uptake assay; conditions: Compound concentration 10.0 uM
[20] = target: T3, Alpha-2A adrenergic receptor (Homo sapiens) (UniProt P08913); test: Alpha2A (h) Eurofins-Cerep binding assay; parameters: ligand concentration 1 nM; conditions: filed as antagonist, Compound concentration 10.0 uM
T3 sequence (whole entry): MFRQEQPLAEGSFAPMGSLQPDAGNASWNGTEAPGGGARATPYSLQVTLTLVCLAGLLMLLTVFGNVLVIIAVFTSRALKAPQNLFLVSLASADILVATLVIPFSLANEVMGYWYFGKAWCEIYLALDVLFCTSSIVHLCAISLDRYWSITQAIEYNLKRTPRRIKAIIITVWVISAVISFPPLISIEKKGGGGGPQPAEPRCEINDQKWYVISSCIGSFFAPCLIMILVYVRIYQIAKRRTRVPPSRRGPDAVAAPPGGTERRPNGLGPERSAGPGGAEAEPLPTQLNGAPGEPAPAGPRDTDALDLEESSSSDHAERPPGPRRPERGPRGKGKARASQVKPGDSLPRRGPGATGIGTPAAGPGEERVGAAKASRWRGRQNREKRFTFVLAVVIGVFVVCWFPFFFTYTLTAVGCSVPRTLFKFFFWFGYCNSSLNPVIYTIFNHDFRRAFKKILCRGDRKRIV

[21] = target: 1-phosphatidylinositol 3-phosphate 5-kinase (Homo sapiens) (UniProt Q9Y2I7); conditions: Compound concentration 1000.0 nM
[22] = target: Homeodomain-interacting protein kinase 2 (Homo sapiens) (UniProt Q9H2X6); conditions: Compound concentration 1000.0 nM
[23] = target: 5-hydroxytryptamine receptor 2B (Homo sapiens) (UniProt P41595); test: 5-HT2B (h) Eurofins-Cerep binding assay; parameters: ligand concentration 0.2 nM; conditions: filed as agonist, Compound concentration 10.0 uM
[24] = target: Dual specificity protein kinase CLK2 (Homo sapiens) (UniProt P49760); conditions: Compound concentration 1000.0 nM
Chain of Dual specificity protein kinase CLK2 (Homo sapiens) (P49760 whole entry, looked up): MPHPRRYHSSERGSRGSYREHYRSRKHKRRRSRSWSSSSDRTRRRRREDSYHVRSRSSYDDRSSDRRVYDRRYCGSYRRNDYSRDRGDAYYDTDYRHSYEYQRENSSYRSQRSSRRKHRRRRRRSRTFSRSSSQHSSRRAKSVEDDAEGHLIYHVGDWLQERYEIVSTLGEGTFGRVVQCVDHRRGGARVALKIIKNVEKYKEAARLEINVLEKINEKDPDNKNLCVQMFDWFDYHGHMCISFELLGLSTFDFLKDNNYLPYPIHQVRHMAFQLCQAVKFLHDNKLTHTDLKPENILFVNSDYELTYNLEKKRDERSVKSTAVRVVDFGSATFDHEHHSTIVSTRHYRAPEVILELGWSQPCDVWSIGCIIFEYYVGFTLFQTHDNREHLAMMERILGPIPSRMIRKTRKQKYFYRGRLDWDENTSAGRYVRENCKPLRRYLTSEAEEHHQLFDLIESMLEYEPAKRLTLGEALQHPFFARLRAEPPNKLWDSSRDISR

[25] = target: Activin receptor type-1 (Homo sapiens) (UniProt Q04771); conditions: Compound concentration 1000.0 nM

Chain of Cyclin-dependent kinase 3 (Homo sapiens) (Q00526 whole entry, looked up): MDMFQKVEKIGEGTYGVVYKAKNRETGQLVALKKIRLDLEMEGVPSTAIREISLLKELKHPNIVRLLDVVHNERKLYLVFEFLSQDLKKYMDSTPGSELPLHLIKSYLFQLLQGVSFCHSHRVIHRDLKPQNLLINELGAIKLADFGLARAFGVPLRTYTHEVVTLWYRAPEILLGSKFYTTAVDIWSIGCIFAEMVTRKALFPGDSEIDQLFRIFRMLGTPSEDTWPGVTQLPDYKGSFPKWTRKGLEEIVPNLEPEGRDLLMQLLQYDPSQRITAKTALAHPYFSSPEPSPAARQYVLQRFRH

SMILES | residual activity [1] | residual activity [2] | % Inhibition of Control Specific Binding (Mean n=2) [3] | % Inhibition of Control Specific Binding (Mean n=2) [4] | % Inhibition of Control Specific Binding (Mean n=2) [5] | residual activity [6] | residual activity [7] | % Inhibition of Control Specific Binding (Mean n=2) [8] | residual activity [9] | % Inhibition of Control Specific Binding (Mean n=2) [10] | residual activity [11] | inhibition [12] | residual activity [13] | residual activity [14] | residual activity [15] | residual activity [16] | residual activity [17] | residual activity [18] | % Inhibition of Control Values (Mean n=2) [19] | % Inhibition of Control Specific Binding (Mean n=2) [20] | other results
O=C(NS(=O)(=O)c1ccc(NCC2CCOCC2)c([N+](=O)[O-])c1)c1ccc(N2CCN(Cc3ccc(C(F)(F)F)cc3-c3ccc(Cl)cc3)CC2)cc1Oc1cnc2[nH]ccc2c1 [A-1210227] | 100% | 100% | 0.2% | -284% | -13% | 96% | 100% | -10.3% | 71% | -7.6% | 84% | 10% | 100% | 95% | 81% | 100% | 100% | 100% | 78.1% | -5.2% | residual activity [21]: 100%; residual activity [22]: 100%; % Inhibition of Control Specific Binding (Mean n=2) [23]: -51.4%; residual activity [24]: 99%; residual activity [25]: 89%
CO[C@H]1CC[C@H](CNc2ccc(S(=O)(=O)NC(=O)c3ccc(N4CCN(CC5=C(c6ccc(Cl)cc6)CC(C)(C)CC5)CC4)cc3Oc3cnc4[nH]ccc4c3)cc2[N+](=O)[O-])CC1 [A-1211212] | 80% | 100% | -6.1% | -60.6% | 21.4% | 82% | 58% | -2.6% | 67% | 2.5% | 68% | 12.5% | 100% | 85% | 74% | 91% | 70% | 100% | 14.2% | -11.2% | residual activity [21]: 89%; residual activity [22]: 100%; % Inhibition of Control Specific Binding (Mean n=2) [23]: -142%; residual activity [24]: 100%; residual activity [25]: 84%

Reference: ChEMBL document CHEMBL4507310, “Data for DCP probe A-1211212” (2021)
